# Test results as given in patent US20220170930A1, “METHOD FOR SCREENING COMPOUND FOR TREATING OR PREVENTING POLYQ-RELATED NEURODEGENERATIVE DISEASES” (FUDAN UNIVERSITY, priority 2019, published 2022).
# Structures can show the parent of a compound that is named as a salt.
# Assays:
# [1] = test system: mHTT; assay: HTRF mHTT level in HD patient immortalized fibroblasts; details: for mHTT level: c-Raf inhibitors and KSP inhibitors at 100 nM; for mHTT levels, comparison of FIG. 9: concentrations below the micromolar level
# Experimental: Homogeneous time-resolved fluorescence (HTRF) analysis: the cell or tissue lysate was diluted with the original lysis buffer PBS+1% (v/v) Triton X-100+1×cOmplete™ protease inhibitor to lyse the sample, then HTRF assay buffer (50 mM NaH2PO4, 400 mM NaF, 0.1% BSA, 0.05% (v/v) Tween-20, 1% (v/v) Triton X-100, pH 7.4) was used to dilute the specified antibody pair for detection.
# The immortalized fibroblasts of HD patients were treated using the above-mentioned c-Raf inhibitors and KSP inhibitors respectively at a concentration of 100 nM.
# [2] = in vivo; details: mouse, ip, 0.5 mg/kg
# Experimental: Experimental method: The compound or control DMSO was diluted with 0.9% NaCl intravenous infusion solution to 0.05 μg/μL. One ip-injection (0.5 mg/kg) was conducted per day. After 14 days of injection, tissue extraction or behavioral experiment were conducted.
# [3] = test system: proteins with expanded polyglutamine (polyQ-GFP); assay: OI-RD affinity screening with polyQ-GFP proteins; assay type: binding; details: OI-RD difference images
# Experimental: (§1) To identify compound(s) that can selectively bind to proteins containing expanded polyglutamine, screening was conducted using a method similar to 1.1, except for that the target protein HTTexon1-Q72-MBP in step (1) of 1.1 was replaced with the polyQ-GFP protein prepared in 10.1, and the target protein HTTexon1-Q25-MBP in step (2) of 1.1 was replaced with GFP.
# [4] = target: T1, MBP-ATXN3-Q28 (Homo sapiens, UniProt P54252, INS305QQQQQQQQQQQQQQQQQQ); assay: OI-RD affinity screening with MBP-ATXN3-Q28; assay type: binding; details: OI-RD difference images
# T1 construct: His8 with TEV protease cleavage site; made in house; host or cells: Escherichia coli Rosetta(DE3)pLsyS
# T1 sequence (P54252 with tags, fused parts or gaps isoform P54252-4 with the stated changes): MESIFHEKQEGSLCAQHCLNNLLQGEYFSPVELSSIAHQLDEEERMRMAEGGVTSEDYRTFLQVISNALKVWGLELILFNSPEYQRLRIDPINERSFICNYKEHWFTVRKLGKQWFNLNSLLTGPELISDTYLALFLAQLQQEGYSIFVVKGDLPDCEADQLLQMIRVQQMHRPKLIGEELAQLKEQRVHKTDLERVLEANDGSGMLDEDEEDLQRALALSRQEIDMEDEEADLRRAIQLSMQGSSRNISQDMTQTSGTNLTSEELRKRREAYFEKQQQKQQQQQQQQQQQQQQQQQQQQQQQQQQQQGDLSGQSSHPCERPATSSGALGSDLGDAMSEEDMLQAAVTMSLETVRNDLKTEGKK
# Experimental: (§2) Screening was conducted using a method similar to 1.1, except for that the target protein HTTexon1-Q72-MBP in step (1) of 1.1 was replaced with MBP-ATXN3-Q68 and the target protein HTTexon1-Q25-MBP in step (2) of 1.1 was replaced with MBP-ATXN3-Q28, to obtain compounds that can selectively bind to ATXN3 with abnormally expanded polyQ (MBP-ATXN3-Q68).
# [5] = test system: polyQ-GFP (Q72-GFP, Q25-GFP); assay: polyQ-GFP level in HEK293T cells by Incucyte fluorescence counting; assay type: cell-based; details: Q72-GFP vs Q25-GFP expressing HEK293T cells, 100 nM compound 1, 100 nM compound 3 or 50 nM compound 4, 2 days
# Source text: (1) PolyQ-GFP cDNA sequence (expressing Met-polyQ-GFP, wherein polyQ was Q72 or Q25) was synthesized de novo and subcloned into pcDNA vector. It was transfected into HEK293T cells (ATCC, CRL-3216) through forward transfection to obtain Q72-GFP expressing cells and Q25-GFP expressing cells, respectively. And the same method was used to obtain cells expressing Q53-GFP, cells expressing Q46-GFP, and cells expressing Q38-GFP.
# The Q72-GFP expressing cells and Q25-GFP expressing cells obtained in step (1) of 10.1 were used. […] Then the level of polyQ-GFP was measured by Incucyte fluorescence counting (FIG. 25).
# [6] = test system: mHTT; assay: Intracerebroventricular injection, mHTT and wtHTT in cortices of HD mice; assay type: in vivo, mouse; details: mouse, in vivo
# Experimental: Experimental animals: Hdh^Q140/Q7 mice (3 months old), 4 in each group.
# Each test includes three repetitions for each sample, and the mean values was calculated (FIG. 16).
# [7] = target: T1, MBP-ATXN3-Q28; assay: MST affinity with MBP-ATXN3-Q28; assay type: binding
# Experimental: Protein concentration was 500 nM.
# [8] = target: T2, wild-type ATXN3 protein (ATXN3-Q27) (Homo sapiens, UniProt P54252, G306R/INS305QQQQQQQQQQQQQQQQQ/V212M); assay: Western-blot wild-type ATXN3 level in fibroblasts; assay type: cell-based; details: 100 nM (compound 4: 50 nM), 2 days
# T2 construct: endogenous in cells; host or cells: wild-type fibroblasts (Q27) and/or the normal allele in SCA3 patient fibroblasts
# T2 sequence (P54252 with tags, fused parts or gaps isoform P54252-1 with the stated changes): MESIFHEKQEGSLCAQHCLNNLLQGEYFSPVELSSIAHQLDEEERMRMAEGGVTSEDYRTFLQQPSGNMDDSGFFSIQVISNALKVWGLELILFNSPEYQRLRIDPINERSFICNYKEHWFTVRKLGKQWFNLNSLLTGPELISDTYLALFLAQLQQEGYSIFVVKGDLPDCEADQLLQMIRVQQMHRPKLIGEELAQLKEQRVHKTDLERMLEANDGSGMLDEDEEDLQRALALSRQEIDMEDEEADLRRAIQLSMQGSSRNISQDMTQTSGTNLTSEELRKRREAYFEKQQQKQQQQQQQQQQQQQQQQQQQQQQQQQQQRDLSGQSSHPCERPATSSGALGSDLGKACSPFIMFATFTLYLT
# Experimental: (§3) Then the levels of mutant ATXN3 protein (ATXN3-Q74, SEQ ID NO: 2) and wild-type ATXN3 protein (ATXN3-Q27, SEQ ID NO: 7) were determined by Western-blots (FIG. 26). […] Therefore, the compound of the present invention can be used to treat SCA3.
# [9] = test system: GFP; assay: OI-RD affinity screening with GFP; assay type: binding; details: OI-RD difference images
# Experimental: as §1
# [10] = target: T3, His-ATXN1-Q92 (Homo sapiens, UniProt P54253, INS208QQQQQQQQQQQQQQQQQQQQQQQQQQQQQQQQQQQQQQQQQQQQQQQQQQQQQQQQQQQQQQQQQQQQQQQQQQQQQQQQ); assay: OI-RD affinity screening with His-ATXN1-Q92; assay type: binding; details: OI-RD difference images
# T3 construct: made in house; host or cells: HEK293T cells (ATCC, CRL-3216)
# T3 sequence (P54253 with tags, fused parts or gaps with the stated changes): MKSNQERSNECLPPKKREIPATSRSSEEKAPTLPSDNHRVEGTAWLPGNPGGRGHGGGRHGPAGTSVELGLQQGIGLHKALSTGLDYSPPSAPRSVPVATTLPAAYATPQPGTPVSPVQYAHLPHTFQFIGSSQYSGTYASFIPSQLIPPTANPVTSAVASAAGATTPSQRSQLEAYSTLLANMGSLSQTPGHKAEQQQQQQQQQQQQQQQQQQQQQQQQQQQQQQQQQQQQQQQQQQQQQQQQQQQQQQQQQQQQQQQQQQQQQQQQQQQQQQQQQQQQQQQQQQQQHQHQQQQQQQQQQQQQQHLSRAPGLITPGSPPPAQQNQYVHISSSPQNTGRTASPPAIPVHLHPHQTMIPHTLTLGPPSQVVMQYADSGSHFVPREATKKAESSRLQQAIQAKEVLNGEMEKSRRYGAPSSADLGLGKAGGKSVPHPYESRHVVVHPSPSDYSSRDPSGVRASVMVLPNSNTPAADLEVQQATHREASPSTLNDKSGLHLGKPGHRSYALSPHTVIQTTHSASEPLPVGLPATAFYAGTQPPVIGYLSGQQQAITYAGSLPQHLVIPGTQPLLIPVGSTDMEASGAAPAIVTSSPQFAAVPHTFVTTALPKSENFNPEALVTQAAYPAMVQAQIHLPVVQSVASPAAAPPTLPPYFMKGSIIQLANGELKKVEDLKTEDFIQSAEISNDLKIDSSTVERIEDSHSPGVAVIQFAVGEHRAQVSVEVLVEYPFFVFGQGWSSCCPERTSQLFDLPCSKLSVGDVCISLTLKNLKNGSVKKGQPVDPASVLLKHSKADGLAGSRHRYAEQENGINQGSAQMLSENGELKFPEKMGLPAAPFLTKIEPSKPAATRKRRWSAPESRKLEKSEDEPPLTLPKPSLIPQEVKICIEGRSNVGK
# Experimental: (1) PolyQ-ATXN1 cDNA (where polyQ is Q92) was synthesized de novo and subcloned into pcDNA vector. It transfected into HEK293T cells (ATCC, CRL-3216) to obtain cells expressing His-ATXN1-Q92 (SEQ ID NO: 3 with a His tag at the N-terminal).
# (2) The His-ATXN1-Q92 expressed in (1) was purified to obtain ATXN1 with abnormally expanded polyQ.
# To identify compound(s) that can bind to ATXN1 with abnormally expanded polyQ, screening was conducted using a method similar to step (1) of 1.1, except for that the target protein HTTexon1-Q72-MBP in step (1) of 1.1 was replaced with His-ATXN1-Q92.
# [11] = test system: Q25-GFP; assay: MST affinity with Q25-GFP
# Experimental: The affinity of the compound with full-length HTT and LC3B was verified with micro thermophoresis (MST) using Monolith NT.115 instrument from NanoTemper Technologies. The reaction buffer was 20 mM HEPES, pH 7.4, 150 mM NaCl.
# [12] = test system: SQSTM1/p62; assay: SQSTM1/p62 level in mouse cortices after ip injection; assay type: in vivo; details: HD mice
# Experimental: Using a method similar to 6.2, Hdh^Q140/Q7 mice were administered with injections. A method similar to 7.1 was used to detect the effects of ip-injection of compounds on other known autophagy selective substrate proteins (SQSTM1/p62) in the cortical tissue of Hdh^Q140/Q7 mice.
# [13] = target: MBP-ATXN3-Q68 (Homo sapiens, UniProt P54252, INS305QQQQQQQQQQQQQQQQQQQQQQQQQQQQQQQQQQQQQQQQQQQQQQQQQQQQQQQQQQ); assay: OI-RD affinity screening with MBP-ATXN3-Q68; assay type: binding; parameters: His8 with TEV protease cleavage site; made in house; host or cells: Escherichia coli Rosetta(DE3)pLsyS; details: OI-RD difference images
# MBP-ATXN3-Q68, sequence (P54252 with tags, fused parts or gaps isoform P54252-4 with the stated changes): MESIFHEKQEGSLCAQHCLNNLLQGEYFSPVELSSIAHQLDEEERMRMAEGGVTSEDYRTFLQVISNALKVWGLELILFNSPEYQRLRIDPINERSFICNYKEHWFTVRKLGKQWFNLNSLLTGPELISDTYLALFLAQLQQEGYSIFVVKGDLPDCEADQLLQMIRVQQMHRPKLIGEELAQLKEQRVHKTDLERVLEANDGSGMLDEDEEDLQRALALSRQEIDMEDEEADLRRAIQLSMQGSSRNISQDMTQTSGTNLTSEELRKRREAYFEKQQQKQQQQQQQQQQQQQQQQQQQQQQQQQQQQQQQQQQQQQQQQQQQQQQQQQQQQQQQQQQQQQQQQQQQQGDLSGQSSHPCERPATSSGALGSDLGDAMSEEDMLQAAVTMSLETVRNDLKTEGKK
# Experimental: as §2
# [14] = target: T4, mutant ATXN3 protein (ATXN3-Q74) (Homo sapiens, UniProt P54252, G306R/INS305QQQQQQQQQQQQQQQQQQQQQQQQQQQQQQQQQQQQQQQQQQQQQQQQQQQQQQQQQQQQQQQQ/V212M); assay: Western-blot mutant ATXN3 level in SCA3 patient fibroblasts; assay type: cell-based; details: 100 nM (compound 4: 50 nM), 2 days
# T4 construct: endogenous in cells; host or cells: SCA3 patient fibroblasts (Q74)
# T4 sequence (P54252 with tags, fused parts or gaps isoform P54252-1 with the stated changes): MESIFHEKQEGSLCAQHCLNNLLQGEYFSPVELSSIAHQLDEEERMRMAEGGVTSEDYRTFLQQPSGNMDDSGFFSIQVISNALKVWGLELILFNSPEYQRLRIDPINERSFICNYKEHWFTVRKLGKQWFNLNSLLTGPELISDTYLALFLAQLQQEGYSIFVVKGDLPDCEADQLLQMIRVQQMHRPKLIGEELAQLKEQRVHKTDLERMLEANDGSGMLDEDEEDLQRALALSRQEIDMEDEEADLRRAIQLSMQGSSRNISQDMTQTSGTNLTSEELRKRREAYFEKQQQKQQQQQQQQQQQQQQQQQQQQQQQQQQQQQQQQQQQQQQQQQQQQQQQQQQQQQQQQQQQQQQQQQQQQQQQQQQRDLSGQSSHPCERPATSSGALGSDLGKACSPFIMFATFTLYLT
# Experimental: as §3
# [15] = target: T5, mutant ATXN1 protein (His-ATXN1-Q92) (Homo sapiens, UniProt P54253, INS208QQQQQQQQQQQQQQQQQQQQQQQQQQQQQQQQQQQQQQQQQQQQQQQQQQQQQQQQQQQQQQQQQQQQQQQQQQQQQQQQ); assay: HTRF mutant ATXN1 level in His-ATXN1-Q92-expressing cells; assay type: cell-based; details: 100 nM, 2 days, anti-His-Tb/MW1-D2
# T5 construct: expressed in transfected cells; host or cells: HEK293T cells (ATCC, CRL-3216)
# T5 sequence (P54253 with tags, fused parts or gaps with the stated changes): as the sequence (P54253 with tags, fused parts or gaps with the stated changes) above
# [16] = test system: Q25-GFP; assay: OI-RD affinity screening with Q25-GFP; assay type: binding; details: OI-RD difference images
# Source text: (1) PolyQ-GFP cDNA sequence (expressing Met-polyQ-GFP, wherein polyQ was Q72 or Q25) was synthesized de novo and subcloned into pcDNA vector. […] And the same method was used to obtain cells expressing Q53-GFP, cells expressing Q46-GFP, and cells expressing Q38-GFP.
smiles,measurement,setting,value
COc1ccc(Oc2cc(NCCC(F)(F)F)c3ncc(-c4ccc(C(=O)NC5CC5)c(C)c4)n3n2)c(F)c1F [BAY1217389],mHTT level,[1],No decrease in mHTT level was observed
same,"mHTT levels, comparison of FIG. 9",[1],did not reduce mHTT levels
CC(C)(C)c1nc(-c2cccc(NS(=O)(=O)c3c(F)cccc3F)c2F)c(-c2ccnc(N)n2)s1 [Dabrafenib],mHTT level,[1],No decrease in mHTT level was observed
CC(C)Oc1ccc(C(=O)N[C@H](CNC(=O)CN(C)C)Cc2ccc(-c3cn4cccc([C@H](C)O)c4n3)cc2)cc1Cl [GSK923295],mHTT level,[1],No decrease in mHTT level was observed
CCCS(=O)(=O)Nc1ccc(F)c(C(=O)c2c[nH]c3ncc(Cl)cc23)c1F [PLX-4720],mHTT level,[1],No decrease in mHTT level was observed
same,"mHTT levels, comparison of FIG. 9",[1],did not reduce mHTT levels
CNC(=O)c1cc(Oc2ccc(NC(=O)Nc3ccc(Cl)c(C(F)(F)F)c3)cc2)ccn1 [Sorafenib Tosylate],mHTT level,[1],No decrease in mHTT level was observed
O=c1cc(-c2ccccc2)c2c(O)cc(O)cc2o1 [compound 4],concentration at 2 h,[2],9.48 ng/g
same,binding affinity to proteins with 38 or more glutamine repeats,[3],showed certain binding affinity
same,binding to MBP-ATXN3-Q28,[4],did not bind
same,level of proteins containing expanded polyglutamine in cells (polyQ-GFP),[5],can selectively reduce the level
same,mHTT level in cortices,[6],significantly reduced mHTT level
same,binding affinity with normal ATXN3 protein (MBP-ATXN3-Q28),[7],no binding affinity
same,wild-type ATXN3 protein level,[8],no decrease in wild-type ATXN3 protein level was observed
same,binding to GFP,[9],did not bind
same,binding to His-ATXN1-Q92,[10],can bind
same,binding affinity to Q25-GFP,[11],no binding affinity
same,level of SQSTM1/p62 in the cortices,[12],did not change
same,binding to MBP-ATXN3-Q68,[13],binded
same,mutant ATXN3 protein level,[14],A decrease in mutant ATXN3 protein level was observed
same,level of mutant ATXN1 protein (His-ATXN1-Q92),[15],Decreased levels of mutant ATXN1 were observed
same,binding to Q25-GFP,[16],did not bind
same,"mHTT levels, comparison of FIG. 9",[1],reduces mHTT levels
